Converted amounts (≈) assume the structure as drawn.
What was measured:
[1] = in vitro; details: mouse, liver microsomes
[2] = in vitro; details: human, liver microsomes
[3] = physchem; details: D2O (deuterium oxide)
[4] = Liver microsomal phase I stability, human; details: for HLM phase I stability (% remaining after 30 min): human liver microsomes 0.5 mg/mL, 1 μM compound, NADPH, 37 °C, mean ± SD, n=3; for Stability in human liver microsomes relative to 1, Truli: experimental values of Table 4
[5] = test system: 321 protein kinases; design: method as in PMID 35231442; details: out of 321 tested protein kinases; cited from earlier work
[6] = In vivo pharmacokinetics in male mice; details: for Ft: IP; for half-life: T1/2, male mice; for clearance: CL
Procedure: All animal procedures were performed in accordance with the Guidelines for Care and Use of Laboratory Animals of Korea Research Institute of Chemical Technology and approved by the Animal Ethics Committee of Korea Research Institute of Chemical Technology.

[7] = Liver microsomal phase I stability, mouse; details: mouse liver microsomes 0.5 mg/mL, 1 μM compound, NADPH, 37 °C, mean ± SD, n=3
[8] = test system: 468 kinases; experiment: KINOMEscan scanMAX kinase profiling, selectivity over the panel; assay type: binding; details: 100 nM, of 403 non-mutant kinases
[9] = target: T1, DMPK (Homo sapiens, UniProt Q09013); experiment: KINOMEscan scanMAX binding, DMPK; details: 100 nM compound; lower = stronger interaction
T1 sequence (Q09013 1-629): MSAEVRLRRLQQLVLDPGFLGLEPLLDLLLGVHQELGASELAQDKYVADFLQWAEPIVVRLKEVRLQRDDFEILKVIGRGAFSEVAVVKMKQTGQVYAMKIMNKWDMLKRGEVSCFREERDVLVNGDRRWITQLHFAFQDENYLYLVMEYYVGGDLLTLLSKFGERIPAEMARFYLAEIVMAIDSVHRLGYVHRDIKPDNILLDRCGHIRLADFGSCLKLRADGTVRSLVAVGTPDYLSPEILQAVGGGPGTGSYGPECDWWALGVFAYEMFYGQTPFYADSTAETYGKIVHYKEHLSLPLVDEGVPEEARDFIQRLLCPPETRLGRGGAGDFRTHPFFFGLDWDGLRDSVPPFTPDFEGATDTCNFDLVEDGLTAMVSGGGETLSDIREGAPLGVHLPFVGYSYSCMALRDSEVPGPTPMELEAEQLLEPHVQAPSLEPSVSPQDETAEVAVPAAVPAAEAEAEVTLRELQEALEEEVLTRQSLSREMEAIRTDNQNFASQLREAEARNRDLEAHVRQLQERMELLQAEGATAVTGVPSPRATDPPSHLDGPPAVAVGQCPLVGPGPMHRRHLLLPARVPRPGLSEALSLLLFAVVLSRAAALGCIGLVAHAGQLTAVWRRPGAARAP

[10] = target: T2, YSK4 (Homo sapiens, UniProt Q56UN5); experiment: KINOMEscan scanMAX binding, YSK4; details: 100 nM compound; lower = stronger interaction
T2 sequence (Q56UN5 1-1328): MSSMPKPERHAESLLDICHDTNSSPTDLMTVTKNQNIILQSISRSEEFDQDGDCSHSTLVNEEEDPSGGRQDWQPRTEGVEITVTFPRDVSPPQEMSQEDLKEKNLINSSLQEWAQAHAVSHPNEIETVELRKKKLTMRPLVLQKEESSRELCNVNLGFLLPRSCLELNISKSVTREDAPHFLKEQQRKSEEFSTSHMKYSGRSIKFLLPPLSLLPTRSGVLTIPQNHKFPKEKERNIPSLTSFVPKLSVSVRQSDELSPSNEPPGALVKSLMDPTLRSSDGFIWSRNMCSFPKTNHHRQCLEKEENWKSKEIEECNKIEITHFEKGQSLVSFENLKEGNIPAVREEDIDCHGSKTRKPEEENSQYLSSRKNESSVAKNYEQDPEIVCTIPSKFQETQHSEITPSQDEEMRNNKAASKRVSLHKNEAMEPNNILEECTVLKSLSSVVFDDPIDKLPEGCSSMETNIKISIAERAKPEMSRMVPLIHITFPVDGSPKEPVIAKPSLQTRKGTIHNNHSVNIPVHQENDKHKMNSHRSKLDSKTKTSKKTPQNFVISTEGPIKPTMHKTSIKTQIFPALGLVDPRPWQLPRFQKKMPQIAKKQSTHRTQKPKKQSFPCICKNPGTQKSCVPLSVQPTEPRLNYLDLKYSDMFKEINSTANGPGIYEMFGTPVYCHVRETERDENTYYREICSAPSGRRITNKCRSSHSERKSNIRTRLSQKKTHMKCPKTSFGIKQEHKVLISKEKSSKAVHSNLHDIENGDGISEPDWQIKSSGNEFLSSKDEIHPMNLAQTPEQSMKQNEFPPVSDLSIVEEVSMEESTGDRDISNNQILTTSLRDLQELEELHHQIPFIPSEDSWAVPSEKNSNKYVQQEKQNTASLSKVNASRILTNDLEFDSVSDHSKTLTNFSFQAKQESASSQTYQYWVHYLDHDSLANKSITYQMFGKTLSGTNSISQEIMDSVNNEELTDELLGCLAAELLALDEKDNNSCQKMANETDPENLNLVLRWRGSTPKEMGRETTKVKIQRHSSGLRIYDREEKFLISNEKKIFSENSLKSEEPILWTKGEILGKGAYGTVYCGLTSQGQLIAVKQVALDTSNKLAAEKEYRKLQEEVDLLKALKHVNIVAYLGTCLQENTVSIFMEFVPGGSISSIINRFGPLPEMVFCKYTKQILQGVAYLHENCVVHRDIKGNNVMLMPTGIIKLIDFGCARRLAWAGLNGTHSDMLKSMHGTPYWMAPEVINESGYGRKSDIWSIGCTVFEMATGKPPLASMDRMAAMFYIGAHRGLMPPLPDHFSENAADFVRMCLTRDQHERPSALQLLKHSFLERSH

[11] = male, mouse, plasma, ip, 10 mg/kg
[12] = male, mouse, plasma, iv, 5 mg/kg
[13] = male, mouse, plasma, iv, 5 mg/kg, male mice
[14] = male, mouse, plasma, po, 20 mg/kg

remaining at 0.5 h, 1 μM [1]	remaining at 0.5 h, 1 μM [2]	solubility at 24 h [3]	HLM phase I stability (% remaining after 30 min) [4]	Structure (SMILES)	Ft ([6]; male mice, 10 mg/kg)	AUC(0-inf) [6, 11]	AUC(0-t) [6, 11]	Cmax [6, 11]	MRT inf [6, 11]	MRT last [6, 11]	Tmax [6, 11]	half-life [6, 11]	AUC(0-inf) [6, 12]	AUC(0-t) [6, 12]	MRT inf [6, 12]	MRT last [6, 12]	Vd [6, 12]	clearance [6, 13]	half-life [6, 12]	AUC(0-inf) [6, 14]	also measured
0.18 ± 0.03%	2.68 ± 0.46%	140 ± 26 µg/mL (≈ 419 µM)	2.7 ± 0.5%	O=C(/N=c1\sccn1Cc1ccccc1)c1c[nH]c2ncccc12 [1 (Truli), (Z)-N-(3-benzylthiazol-2(3H)-ylidene)-1H-pyrrolo[2,3-b]pyridine-3-carboxamide, reference compound]	–	–	–	–	–	–	–	–	–	–	–	–	–	–	–	–	–
–	–	–	–	CC/C(=N\NC(=O)NCc1cccc(O)c1)c1ccc(O)c(C)c1O [3 (GA-017)]	–	–	–	–	–	–	–	–	–	–	–	–	–	–	–	–	Number of protein kinases against which high potency was exhibited [5]: 16
13.8 ± 0.55%	43.1 ± 1.1%	680 ± 89 µg/mL (≈ 2030 µM)	43 ± 1.1%	O=C(/N=c1\sccn1Cc1ccccc1)c1c[nH]c2ncncc12 [Compound 5k, (Z)-N-(3-Benzylthiazol-2(3H)-ylidene)-7H-pyrrolo[2,3-d]pyrimidine-5-carboxamide]	131.71%	11500 ± 3250 ng·h/mL	11400 ± 3280 ng·h/mL	9510 ± 2030 ng/mL	1.27 ± 0.15 h	1.14 ± 0.15 h	0.5 h	5.24 ± 2.45 h	4340 ± 2160 ng·h/mL	4340 ± 2170 ng·h/mL	1.49 ± 1.72 h	1.43 ± 1.65 h	3 ± 4.42 L/kg	23.5 mL/min/kg	2.86 ± 1.88 h	25800 ± 7970 ng·h/mL	AUC(0-t) [6, 14]: 25700 ± 8010 ng·h/mL; Cmax [6, 14]: 13300 ± 2820 ng/mL; MRT inf [6, 14]: 1.81 ± 0.94 h; MRT last [6, 14]: 1.74 ± 0.99 h; Tmax [6, 14]: 0.42 ± 0.14 h; bioavailability [6, 14]: 148%; half-life [6, 14]: 4.25 ± 3.57 h; MLM phase I stability (% remaining after 30 min) [7]: 14 ± 0.6%; Stability in human liver microsomes relative to 1, Truli [4]: more than ten times higher stability

Structure (SMILES)	remaining at 0.5 h, 1 μM [1]	remaining at 0.5 h, 1 μM [2]	solubility at 24 h [3]	HLM phase I stability (% remaining after 30 min) [4]	Ft ([6]; male mice, 10 mg/kg)	AUC(0-inf) [6, 11]	AUC(0-t) [6, 11]	Cmax [6, 11]	MRT inf [6, 11]	MRT last [6, 11]	Tmax [6, 11]	half-life [6, 11]	AUC(0-inf) [6, 12]	AUC(0-t) [6, 12]	MRT inf [6, 12]	MRT last [6, 12]	Vd [6, 12]	clearance [6, 13]	half-life [6, 12]	AUC(0-inf) [6, 14]	also measured
O=C(/N=c1\sccn1Cc1ccccc1)c1n[nH]c2ncccc12 [Compound 5l, (Z)-N-(3-Benzylthiazol-2(3H)-ylidene)-1H-pyrazolo[3,4-b]pyridine-3-carboxamide]	0.69 ± 0.17%	34.9 ± 1.31%	290 ± 15 µg/mL (≈ 865 µM)	35 ± 1.3%	74.36%	4390 ± 710 ng·h/mL	4370 ± 720 ng·h/mL	7300 ± 1880 ng/mL	1.14 ± 0.21 h	0.97 ± 0.12 h	0.08 h	5.59 ± 0.88 h	2960 ± 150 ng·h/mL	2940 ± 180 ng·h/mL	1.04 ± 0.71 h	0.71 ± 0.25 h	1.8 ± 1.32 L/kg	28.2 mL/min/kg	6.56 ± 3.32 h	5160 ± 590 ng·h/mL	Number hits, S(1) ([8]; %Ctrl <1): 0; Number hits, S(10) ([8]; %Ctrl <10): 2; Number hits, S(35) ([8]; %Ctrl <35): 3; %Ctrl @ 100 nM, DMPK [9]: 6.5 %Ctrl; %Ctrl @ 100 nM, YSK4 [10]: 7.1 %Ctrl; Ft (bioavailability, F) ([6]; male mice, PO, 20 mg/kg): 43.89%; AUC(0-t) [6, 14]: 5150 ± 590 ng·h/mL; Cmax [6, 14]: 5740 ± 920 ng/mL; MRT inf [6, 14]: 1.56 ± 0.1 h; MRT last [6, 14]: 1.5 ± 0.1 h; Tmax [6, 14]: 0.25 h; half-life [6, 14]: 3.46 ± 0.33 h; Stability in human liver microsomes relative to 1, Truli [4]: more than ten times higher stability
